Reference: patent US8722727B2, “Antifungal agents” (Seynix, Inc., priority 2008, dated 2014)

Each molecule was assayed against T1, glucan synthase (GS) (Candida albicans, UniProt O13428) (assay: Glucan synthase inhibition (polymerization assay, 96-well)). Conditions: glucan synthase prepared from Candida albicans MY1055; 60 min incubation at 22° C.; read-out: Candida Albicans GS IC50 (ng/mL) (converted).
T1 construct: Extraction of GS activity from membranes was performed at a protein concentration of 5 mg/mL in extraction buffer; endogenous in cells; host or cells: Candida albicans MY1055 (membrane fraction, detergent extraction, product entrapment)
T1 sequence (O13428 1-1897): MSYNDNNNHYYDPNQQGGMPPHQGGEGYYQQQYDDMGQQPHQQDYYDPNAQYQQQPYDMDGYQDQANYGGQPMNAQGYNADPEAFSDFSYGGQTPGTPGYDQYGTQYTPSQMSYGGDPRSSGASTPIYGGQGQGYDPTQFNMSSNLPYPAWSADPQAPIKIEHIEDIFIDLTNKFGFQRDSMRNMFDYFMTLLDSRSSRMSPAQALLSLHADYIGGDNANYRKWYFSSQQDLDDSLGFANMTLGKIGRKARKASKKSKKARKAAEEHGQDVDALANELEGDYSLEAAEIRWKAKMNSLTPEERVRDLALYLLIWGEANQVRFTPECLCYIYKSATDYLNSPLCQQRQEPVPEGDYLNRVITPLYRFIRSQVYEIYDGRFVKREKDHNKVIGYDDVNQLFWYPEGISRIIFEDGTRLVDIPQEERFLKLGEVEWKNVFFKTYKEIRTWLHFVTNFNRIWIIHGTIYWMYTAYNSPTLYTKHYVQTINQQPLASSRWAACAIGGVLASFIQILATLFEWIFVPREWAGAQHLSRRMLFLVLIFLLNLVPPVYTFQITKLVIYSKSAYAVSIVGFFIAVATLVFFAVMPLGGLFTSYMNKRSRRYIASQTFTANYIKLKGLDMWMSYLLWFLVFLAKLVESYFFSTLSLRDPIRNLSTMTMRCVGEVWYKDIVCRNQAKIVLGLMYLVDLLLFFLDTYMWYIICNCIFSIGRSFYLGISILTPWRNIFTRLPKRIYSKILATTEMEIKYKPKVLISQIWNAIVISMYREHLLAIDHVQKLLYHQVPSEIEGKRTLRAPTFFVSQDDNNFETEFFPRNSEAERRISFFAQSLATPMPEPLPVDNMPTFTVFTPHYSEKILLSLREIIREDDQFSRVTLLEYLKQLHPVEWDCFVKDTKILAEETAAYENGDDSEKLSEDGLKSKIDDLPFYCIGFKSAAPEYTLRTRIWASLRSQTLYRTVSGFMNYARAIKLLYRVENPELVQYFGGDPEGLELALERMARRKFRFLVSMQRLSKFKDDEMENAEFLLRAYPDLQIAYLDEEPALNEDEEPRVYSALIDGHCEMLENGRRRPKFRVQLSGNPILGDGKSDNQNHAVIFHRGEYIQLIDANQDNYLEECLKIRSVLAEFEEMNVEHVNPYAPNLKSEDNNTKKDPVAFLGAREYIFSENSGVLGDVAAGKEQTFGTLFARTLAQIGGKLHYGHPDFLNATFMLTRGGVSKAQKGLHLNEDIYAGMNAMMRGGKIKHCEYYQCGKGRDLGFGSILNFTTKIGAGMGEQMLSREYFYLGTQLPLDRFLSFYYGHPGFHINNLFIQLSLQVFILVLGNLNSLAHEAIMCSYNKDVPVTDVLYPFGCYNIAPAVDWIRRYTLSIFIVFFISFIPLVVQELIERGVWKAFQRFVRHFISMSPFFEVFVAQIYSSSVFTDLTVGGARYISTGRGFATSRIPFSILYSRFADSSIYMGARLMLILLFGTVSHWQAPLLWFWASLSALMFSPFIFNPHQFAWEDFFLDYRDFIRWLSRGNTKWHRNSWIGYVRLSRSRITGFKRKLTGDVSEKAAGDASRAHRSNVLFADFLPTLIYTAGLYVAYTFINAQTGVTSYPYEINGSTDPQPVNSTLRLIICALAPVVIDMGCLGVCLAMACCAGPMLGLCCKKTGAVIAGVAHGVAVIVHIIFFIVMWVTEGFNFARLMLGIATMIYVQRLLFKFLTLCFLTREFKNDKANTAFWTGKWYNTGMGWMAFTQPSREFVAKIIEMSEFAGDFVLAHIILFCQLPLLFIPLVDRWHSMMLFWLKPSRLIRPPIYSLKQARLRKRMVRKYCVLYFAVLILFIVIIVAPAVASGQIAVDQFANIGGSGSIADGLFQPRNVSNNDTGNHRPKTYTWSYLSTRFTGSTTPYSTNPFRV
T1 sequence (O42825 1-195 partner limits assumed): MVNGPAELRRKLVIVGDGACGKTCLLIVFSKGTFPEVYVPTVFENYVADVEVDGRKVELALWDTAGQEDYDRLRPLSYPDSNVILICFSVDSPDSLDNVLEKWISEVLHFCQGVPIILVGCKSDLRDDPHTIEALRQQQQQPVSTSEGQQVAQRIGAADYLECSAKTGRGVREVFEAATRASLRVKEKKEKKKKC
Type: biochemical
Method in brief: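 Partially purified membrane glucan synthase from C. albicans MY1055, 60 min at 22° C with 0.5 mM 3H-UDPG, 25 μM GTP-γ-S, pH 7.5 HEPES, 25 mM KF. TCA-precipitated glucan filtered and scintillation counted; IC50 (ng/mL) from sigmoidal fit of duplicates over 3-fold dilutions.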

IC50 | SMILES
5.98 nM | CC(C)[C@@H](C)[C@@]1(C)CC[C@]2(C)[C@H]3CC[C@@H]4[C@@]5(COC[C@@]4(C)[C@@H](OC[C@@H](C(C)C)N(C)C)[C@H](n4nnc(N)n4)C5)C3=CC[C@@]2(C)[C@@H]1C(=O)O [Example 80, (1S,4aR,6aS,7R,8R,10aR,10bR,12aR,14R,15R)-14-(5-amino-2H-tetrazol-2-yl)-15-[[(2R)-2-(dimethylamino)-3-methylbutyl]oxy]-8-[(1R)-1,2-dimethylpropyl]-1,6,6a,7,8,9,10,10a,10b,11,12,12a-dodecahydro-1,6a,8,10a-tetramethyl-4H-1,4a-propano-2H-phenanthro[1,2-c]pyran-7-carboxylic acid]
16.5 nM | CC(C)[C@@H](C)[C@@]1(C)CC[C@]2(C)[C@H]3CC[C@@H]4[C@@]5(COC[C@@]4(C)[C@@H](OC[C@@H](C4CC4)N(C)C)[C@H](n4nnc(N)n4)C5)C3=CC[C@@]2(C)[C@@H]1C(=O)O [Example 83, (1S,4aR,6aS,7R,8R,10aR,10bR,12aR,14R,15R)-14-(5-amino-2H-tetrazol-2-yl)-15-[(2R)-2-cyclopropyl-2-(dimethylamino)ethoxy]-8-[(1R)-1,2-dimethylpropyl]-1,6,6a,7,8,9,10,10a,10b,11,12,12a-dodecahydro-1,6a,8,10a-tetramethyl-4H-1,4a-propano-2H-phenanthro[1,2-c]pyran-7-carboxylic acid]
26.7 nM | CC(C)[C@@H](C)[C@@]1(C)CC[C@]2(C)[C@H]3CC[C@@H]4[C@@]5(COC[C@@]4(C)[C@@H](OC[C@H](N)c4ccccc4)[C@H](n4nnc(N)n4)C5)C3=CC[C@@]2(C)[C@@H]1C(=O)O [Example 88, (1S,4aR,6aS,7R,8R,10aR,10bR,12aR,14R,15R)-14-(5-amino-2H-tetrazol-2-yl)-15-[(2R)-2-amino-2-phenylethoxy]-8-[(1R)-1,2-dimethylpropyl]-1,6,6a,7,8,9,10,10a,10b,11,12,12a-dodecahydro-1,6a,8,10a-tetramethyl-4H-1,4a-propano-2H-phenanthro[1,2-c]pyran-7-carboxylic acid]
9.36 nM | CC(C)[C@H](N)CO[C@H]1[C@H](n2nnc(N)n2)C[C@@]23COC[C@]1(C)[C@@H]2CC[C@H]1C3=CC[C@@]2(C)[C@H](C(=O)O)[C@@](C)([C@H](C)C(C)C)CC[C@]12C [Example 93, (1S,4aR,6aS,7R,8R,10aR,10bR,12aR,14R,15R)-14-(5-amino-2H-tetrazol-2-yl)-15-[[(2S)-2-amino-3-methylbutyl]oxy]-8-[(1R)-1,2-dimethylpropyl]-1,6,6a,7,8,9,10,10a,10b,11,12,12a-dodecahydro-1,6a,8,10a-tetramethyl-4H-1,4a-propano-2H-phenanthro[1,2-c]pyran-7-carboxylic acid]
13.2 nM | CCN[C@H](CO[C@H]1[C@H](n2nnc(N)n2)C[C@@]23COC[C@]1(C)[C@@H]2CC[C@H]1C3=CC[C@@]2(C)[C@H](C(=O)O)[C@@](C)([C@H](C)C(C)C)CC[C@]12C)C(C)(C)C [Example 97, (1S,4aR,6aS,7R,8R,10aR,10bR,12aR,14R,15R)-14-(5-amino-2H-tetrazol-2-yl)-15-[[(2S)-2-(ethylamino)-3,3-dimethylbutyl]oxy]-8-[(1R)-1,2-dimethylpropyl]-1,6,6a,7,8,9,10,10a,10b,11,12,12a-dodecahydro-1,6a,8,10a-tetramethyl-4H-1,4a-propano-2H-phenanthro[1,2-c]pyran-7-carboxylic acid]
11.7 nM | CC[C@H](C)[C@@H](CO[C@H]1[C@H](n2nnc(N)n2)C[C@@]23COC[C@]1(C)[C@@H]2CC[C@H]1C3=CC[C@@]2(C)[C@H](C(=O)O)[C@@](C)([C@H](C)C(C)C)CC[C@]12C)N(C)C [Example 101, (1S,4aR,6aS,7R,8R,10aR,10bR,12aR,14R,15R)-14-(5-amino-2H-tetrazol-2-yl)-15-[[(2S,3S)-2-(dimethylamino)-3-methylpentyl]oxy]-8-[(1R)-1,2-dimethylpropyl]-1,6,6a,7,8,9,10,10a,10b,11,12,12a-dodecahydro-1,6a,8,10a-tetramethyl-4H-1,4a-propano-2H-phenanthro[1,2-c]pyran-7-carboxylic acid]
118 nM | CC(C)[C@@H](C)[C@@]1(C)CC[C@]2(C)[C@H]3CC[C@@H]4[C@@]5(COC[C@@]4(C)[C@@H](OCCN)[C@H](n4cnnn4)C5)C3=CC[C@@]2(C)[C@@H]1C(=O)O [Example 104, (1S,4aR,6aS,7R,8R,10aR,10bR,12aR,14R,15R)-15-(2-aminoethoxy)-8-[(1R)-1,2-dimethylpropyl]-14-(1H-tetrazol-1-yl)-1,6,6a,7,8,9,10,10a,10b,11,12,12a-dodecahydro-1,6a,8,10a-tetramethyl-4H-1,4a-propano-2H-phenanthro[1,2-c]pyran-7-carboxylic acid]
46.4 nM | CCNC(C)(COC1C(n2ncnn2)CC23COCC1(C)C2CCC1C3=CCC2(C)C(C(=O)O)C(C)(C(C)C(C)C)CCC12C)C(C)C [Example 109, (1S,4aR,6aS,7R,8R,10aR,10bR,12aR,14R,15R)-8-[(1R)-1,2-dimethylpropyl]-15-[[(25)-2-(ethylamino)-2,3-dimethylbutyl]oxy]-14-(2H-tetrazol-2-yl)-1,6,6a,7,8,9,10,10a,10b,11,12,12a-dodecahydro-1,6a,8,10a-tetramethyl-4H-1,4a-propano-2H-phenanthro[1,2-c]pyran-7-carboxylic acid]
8.78 nM | CN[C@](C)(CO[C@H]1[C@H](n2nnc(N)n2)C[C@@]23COC[C@]1(C)[C@@H]2CC[C@H]1C3=CC[C@@]2(C)[C@H](C(=O)O)[C@@](C)([C@H](C)C(C)C)CC[C@]12C)C(C)(C)C [Example 112, (1S,4aR,6aS,7R,8R,10aR,10bR,12aR,14R,15R)-14-(5-amino-2H-tetrazol-2-yl)-8-[(1R)-1,2-dimethylpropyl]-15-[[(2S)-2,3,3-trimethyl-2-(methylamino)butyl]oxy]-1,6,6a,7,8,9,10,10a,10b,11,12,12a-dodecahydro-1,6a,8,10a-tetramethyl-4H-1,4a-propano-2H-phenanthro[1,2-c]pyran-7-carboxylic acid]
19.1 nM | CC(C)[C@@H](C)[C@@]1(C)CC[C@]2(C)[C@H]3CC[C@@H]4[C@@]5(COC[C@@]4(C)[C@@H](OCCN(C)C)[C@H](n4nnc(N)n4)C5)C3=CC[C@@]2(C)[C@@H]1C(=O)O [Example 114, (1S,4aR,6aS,7R,8R,10aR,10bR,12aR,14R,15R)-14-(5-amino-2H-tetrazol-2-yl)-15-[2-(dimethylamino)ethoxy]-8-[(1R)-1,2-dimethylpropyl]-1,6,6a,7,8,9,10,10a,10b,11,12,12a-dodecahydro-1,6a,8,10a-tetramethyl-4H-1,4a-propano-2H-phenanthro[1,2-c]pyran-7-carboxylic acid]
60.7 nM | CCCCCC(C)(CO[C@H]1[C@H](n2nnc(N)n2)C[C@@]23COC[C@]1(C)[C@@H]2CC[C@H]1C3=CC[C@@]2(C)[C@H](C(=O)O)[C@@](C)([C@H](C)C(C)C)CC[C@]12C)NCCC (stereo partly drawn) [Example 120, (1S,4aR,6aS,7R,8R,10aR,10bR,12aR,14R,15R)-14-(5-amino-2H-tetrazol-2-yl)-8-[(1R)-1,2-dimethylpropyl]-15-[[2-methyl-2-(propylamino)heptyl]oxy]-1,6,6a,7,8,9,10,10a,10b,11,12,12a-dodecahydro-1,6a,8,10a-tetramethyl-4H-1,4a-propano-2H-phenanthro[1,2-c]pyran-7-carboxylic acid]
